According to patent US7842695B2, “Substituted pyrazole compounds” (Merck Patent GmbH, priority 2003, dated 2010):

Tests used:
5-HT2A receptors = 5-HT2A receptors (UniProt P14842); assay: in-vitro affinity to 5-HT2A receptors, [3H]ketanserine displacement (Example A1); assay type: binding
Excerpt: The 5-HT2A receptors are exposed both to [^3H]ketanserine (a substance known for its affinity to the receptor) and also to the test compound. The decrease in the affinity of [^3H]ketanserine to the receptor is an indication of the affinity of the test substance to the 5-HT2A receptor.

5 HT2C receptor = target: T1, 5 HT2C receptor (Homo sapiens, UniProt P28335); assay: affinity to the 5 HT2C receptor; assay type: binding
T1 sequence (P28335 33-458): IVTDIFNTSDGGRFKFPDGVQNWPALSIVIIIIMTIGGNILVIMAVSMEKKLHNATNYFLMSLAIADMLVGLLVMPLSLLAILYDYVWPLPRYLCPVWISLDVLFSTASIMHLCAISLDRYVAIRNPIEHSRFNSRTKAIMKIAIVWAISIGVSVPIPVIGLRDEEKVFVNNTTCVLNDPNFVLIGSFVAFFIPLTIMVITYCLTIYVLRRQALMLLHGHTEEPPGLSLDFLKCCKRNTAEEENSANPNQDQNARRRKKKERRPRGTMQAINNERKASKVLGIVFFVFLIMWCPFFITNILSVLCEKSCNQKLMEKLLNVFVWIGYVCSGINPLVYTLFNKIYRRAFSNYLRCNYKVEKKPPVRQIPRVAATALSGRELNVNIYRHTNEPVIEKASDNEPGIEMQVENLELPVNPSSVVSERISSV

| Structure (SMILES) | IC50 (5-HT2A receptors) | IC50 (5 HT2C receptor) |
| --- | --- | --- |
| COc1ccc(-c2ccc(-n3ncc(CCN4CCC(O)C4)c3-c3ccco3)cc2)cc1 (stereo not shown) [Example 571, 1-{2-[5-Furan-2-yl-1-(4′-methoxybiphenyl-4-yl)-1H-pyrazol-4-yl]ethyl}pyrrolidin-3-ol] | 12 nM | 800 nM |
| Fc1ccc(-c2ccc(-n3ncc(CN4CCN(C5CCCC5)CC4)c3-c3ccco3)cc2)cc1 [Example 545, 1-Cyclopentyl-4-[1-(4′-fluorobiphenyl-4-yl)-5-furan-2-yl-1H-pyrazol-4-ylmethyl]piperazine] | 4.8 nM | 2000 nM |
| c1coc(-c2c(CN3CCN(C4CCCC4)CC3)cnn2-c2ccc(-c3ccc4c(c3)OCCO4)cc2)c1 [Example 554, 1-Cyclopentyl-4-{1-[4-(2,3-dihydrobenzo-1,4-dioxin-6-yl)phenyl]-5-furan-2-yl-1H-pyrazol-4-ylmethyl}piperazine] | 7 nM | 1300 nM |
| CCN1CCN(Cc2cnn(-c3ccc(-c4ccc5c(c4)OCCO5)cc3)c2-n2cccc2)CC1 [Example 600, 1-{1-[4-(2,3-Dihydrobenzo-1,4-dioxin-6-yl)phenyl]-5-pyrrol-1-yl-1H-pyrazol-4-ylmethyl}-4-ethylpiperazine] | 26 nM | 1000 nM |
| COc1ccc(-c2ccc(-n3ncc(CN4CCN(C)CC4)c3-c3ccco3)cc2)cc1 [Example 546, 1-[5-Furan-2-yl-1-(4′-methoxybiphenyl-4-yl)-1H-pyrazol-4-ylmethyl]-4-methylpiperazine] | 4.8 nM | 360 nM |
| Cc1ccc(-c2ccc(-n3ncc(CN4CCN(C)CC4)c3-c3ccccc3F)cc2)cc1F [Example 625, 1-[1-(3′-Fluoro-4′-methylbiphenyl-4-yl)-5-(2-fluorophenyl)-1H-pyrazol-4-ylmethyl]-4-methylpiperazine] | 36 nM | 620 nM |
| CCN1CCN(Cc2cnn(-c3ccc(-c4ccc5c(c4)OCO5)cc3)c2-c2ccco2)CC1 [Example 533, 1-[1-(4-Benzo-1,3-dioxol-5-ylphenyl)-5-furan-2-yl-1H-pyrazol-4-ylmethyl]-4-ethylpiperazine] | 1.6 nM | 224 nM |
| Fc1ccc(-c2ccc(-n3ncc(CN4CCN(C5CCCC5)CC4)c3-c3ccco3)nc2)cc1 [Example 591, 1-Cyclopentyl-4-{1-[5-(4-fluorophenyl)pyridin-2-yl]-5-furan-2-yl-1H-pyrazol-4-ylmethyl}piperazine] | 20 nM | 1000 nM |
| COc1ccc(-c2ccc(-n3ncc(CN(Cc4nccn4C)Cc4nccn4C)c3-c3ccco3)cc2)cc1 [Example 700, [5-Furan-2-yl-1-(4′-methoxybiphenyl-4-yl)-1H-pyrazol-4-ylmethyl]bis-(1-methyl-1H-imidazol-2-ylmethyl)amine] | 450 nM | – |
| Fc1ccccc1-c1c(CN2CCN(Cc3ccccc3)CC2)cnn1-c1ccc(-c2ccccc2)cc1 [Example 679, 1-Benzyl-4-[1-biphenyl-4-yl-5-(2-fluorophenyl)-1H-pyrazol-4-ylmethyl]piperazine] | 170 nM | – |
| CN1CCN(Cc2cnn(-c3ccc(-c4ccc5c(c4)OCCO5)cc3)c2-n2cccc2)CC1 [Example 651, 1-{1-[4-(2,3-Dihydrobenzo-1,4-dioxin-6-yl)phenyl]-5-pyrrol-1-yl-1H-pyrazol-4-ylmethyl}-4-methylpiperazine] | 55 nM | – |

Further lines, with some results ahead:

| IC50 (5-HT2A receptors) | Structure (SMILES) | IC50 (5 HT2C receptor) |
| --- | --- | --- |
| 34 nM | CC1CCCN1Cc1cnn(-c2ccc(-c3cccc(F)c3)cc2)c1-c1ccco1 (stereo not shown) [Example 620, 1-(3′-Fluorobiphenyl-4-yl)-5-furan-2-yl-4-(2-methylpyrrolidin-1-ylmethyl)-1H-pyrazole] | – |
| 170 nM | OCC(O)CNCc1cnn(-c2ccc(-c3ccc(F)cc3)cc2)c1-c1ccco1 (stereo not shown) [Example 680, 3-{[1-(4′-Fluorobiphenyl-4-yl)-5-furan-2-yl-1H-pyrazol-4-ylmethyl]amino}propane-1,2-diol] | – |
| 470 nM | CN(C)CCN1CCN(Cc2cnn(-c3ccc(-c4ccc(F)cc4)cc3)c2-c2cccc(Cl)c2)CC1 [Example 701, (2-{4-[5-(3-Chlorophenyl)-1-(4′-fluorobiphenyl-4-yl)-1H-pyrazol-4-ylmethyl]piperazin-1-yl}ethyl)dimethylamine] | – |
| 55 nM | NC1CCN(Cc2cnn(-c3ccc(-c4ccc5c(c4)OCCO5)cc3)c2-c2ccco2)CC1 [Example 652, 1-{1-[4-(2,3-Dihydrobenzo-1,4-dioxin-6-yl)phenyl]-5-furan-2-yl-1H-pyrazol-4-ylmethyl}piperidin-4-ylamine] | – |
| 95 nM | CN(CCC#N)Cc1cnn(-c2ccc(-c3ccc(F)cc3)cc2)c1-c1ccco1 [Example 669, 3-{[1-(4′-Fluorobiphenyl-4-yl)-5-furan-2-yl-1H-pyrazol-4-ylmethyl]methylamino}propionitrile] | – |
| 67 nM | Fc1ccc(-c2ccc(-n3ncc(CNCCc4ccncc4)c3-c3ccco3)cc2)cc1 [Example 655, [1-(4′-Fluorobiphenyl-4-yl)-5-furan-2-yl-1H-pyrazol-4-ylmethyl]-(2-pyridin-4-ylethyl)amine] | – |
| 120 nM | NC1CCN(Cc2cnn(-c3ccc(-c4cccc(F)c4)cc3)c2-c2ccco2)CC1 [Example 673, 1-[1-(3′-Fluorobiphenyl-4-yl)-5-furan-2-yl-1H-pyrazol-4-ylmethyl]piperidin-4-ylamine] | – |
| 100 nM | COc1ccc(-c2c(CN3CCN(C)CC3)cnn2-c2ccc(-c3ccc(F)cc3)cc2)cc1 [Example 671, 1-[1-(4′-Fluorobiphenyl-4-yl)-5-(4-methoxyphenyl)-1H-pyrazol-4-ylmethyl]-4-methylpiperazine] | – |
| 190 nM | CCN(CC)Cc1cnn(-c2ccc(-c3ccc(F)cc3)cc2)c1-c1cccc(Cl)c1 [Example 682, [5-(3-Chlorophenyl)-1-(4′-fluorobiphenyl-4-yl)-1H-pyrazol-4-ylmethyl]diethylamine] | – |
| 47 nM | CCC(CO)NCc1cnn(-c2ccc(-c3ccc(F)cc3)cc2)c1-c1ccco1 (stereo not shown) [Example 642, 2-{[1-(4′-Fluorobiphenyl-4-yl)-5-furan-2-yl-1H-pyrazol-4-ylmethyl]amino}butan-1-ol] | – |
| 480 nM | Fc1ccc(-c2ccc(-n3ncc(CN4CCN(CCN5CCCC5)CC4)c3-c3cccc(Cl)c3)cc2)cc1 [Example 703, 1-[5-(3-Chlorophenyl)-1-(4′-fluorobiphenyl-4-yl)-1H-pyrazol-4-ylmethyl]-4-(2-pyrrolidin-1-ylethyl)piperazine] | – |
| 430 nM | CC(=O)N(CCN1CCCCC1)Cc1cnn(-c2ccc(-c3ccc(F)cc3)cc2)c1-c1ccco1 [Example 699, N-[1-(4′-Fluorobiphenyl-4-yl)-5-furan-2-yl-1H-pyrazol-4-ylmethyl]-N-(2-piperidin-1-ylethyl)acetamide] | – |
| 78 nM | CCN(CC)Cc1cnn(-c2ccc(-c3ccc(F)cc3)cc2)c1-c1ccoc1 [Example 662, Diethyl-[1-(4′-fluorobiphenyl-4-yl)-5-furan-3-yl-1H-pyrazol-4-ylmethyl]amine] | – |
| 320 nM | Cc1noc(C)c1-c1c(CN2CCN(C)CC2)cnn1-c1ccc(-c2ccc(F)cc2)cc1 [Example 696, 1-[5-(3,5-Dimethylisoxazol-4-yl)-1-(4′-fluorobiphenyl-4-yl)-1H-pyrazol-4-ylmethyl]-4-methylpiperazine] | – |
| 130 nM | CCN(CC)Cc1cnn(-c2ccc(-c3ccc(F)cc3)cn2)c1-c1ccco1 [Example 675, Diethyl-{1-[5-(4-fluorophenyl)pyridin-2-yl]-5-furan-2-yl-1H-pyrazol-4-ylmethyl}amine] | – |
